Inhibition data for 8 compounds are collected here from patent publication US8598132B2, “Glycosylated indolocarbazoles, method for obtaining same and uses thereof” (Universidad de Oviedo, priority 2008, dated 2013).

What all share (format): biochemical
Common to all, as to conditions: read-out: remaining kinase activity (in %) / percentage of inhibition; for inhibition at 0.01 µM: compound at 10 nM; for inhibition at 0.1 µM: compound at 100 nM

One assay has as its target T1, RSK1 (Homo sapiens, UniProt Q15418).
T1 construct: purchased Carna Biosciences
Put plainly: LabChip (Caliper) kinase assay, RSK1. Here is the method: (§1) The analysis of kinase activity described here was performed using LabChip (Caliper Life Sciences), specifically the Caliper LC3000 and the EZ Reader II instruments.
(§2) The kinase assay used measures the conversion of a fluorescent peptide (substrate) to a phosphorylated product. The reaction mixture, in a microplate well, is introduced by a capillary in a chip where the non-phosphorylated substrate and the phosphorylated product are separated by […]. The intensity of the fluorescent signal over time is related to the reaction progress. The phosphorylated product migrates quicker than the non-phosphorylated substrate and the signals of the two forms of the peptide appear as differentiated peaks. The Caliper determines the peak height and calculates the ratio of product to the peak sum (P/(P+S)). This value is used to compare wells with compounds and wells with controls and thus determine the % of inhibition for the given product.
(§3) The followings kinases were used for the enzymatic inhibition studies, between brackets the value of the Michaelis-Menten constant, Km, of the ATP (Adenosine triphosphate) for each kinase, in μM: obtained from Carna Biosciences: MAPKAPK2 (4.6), AurA (3.6), AurB (5), PKCζ (3.8), RSK1 (23.3), PRAK (5), Erk1 (33.4), PKD2 (32.1), CK1d (16.3), CHK1 (33), ABL (61.7), FYN (36), LYNa (17), CHK2 (57.8), MET (79.5), LCK (28.5), SRC (38), GSK3β (7.3), Erk2 (62.1), PKACα (1.7), AKT2 (186.1), INSR (871.8), p38a (396.5), AKT1(48), MSK1 (21.2), PKCβ2 (84.8), ROCK2 (3.3), PIM2 (4.9), AMPK (38.6), KDR (164.8), IRAK4 (196.5), SGK1 (121.8), SYK (33.5); obtained from Invitrogen: CDK2 (57.6), BTK (123), HGK (80); obtained from Upstate: MST2 (36.6), PKGα (16), PAK2 (1.9), IGF1R (320), FGFR1 (171), MARK1 (33), CAMK2δ (22.4), c-TAK1 (66), DYRK1a (18.1), CaMK4 (3.9), FLT3 (350), c-Raf (6.2), P70S6K (95).
(§4) The compounds were dissolved in 100% DMSO and were diluted at 25 times the final concentration desired for the assay. In the case of the determination of Cl50, serial dilutions were made to reach eight concentrations and give rise to the inhibition curve. 1 μL of each concentration is transferred, in duplicate to a 384-well microplate. 12 μL of enzymatic buffer is added to each well containing purified kinase (several suppliers as indicated above), 100 mM HEPES, pH 7.5, 1 mM DTT (Calbiochem), 0.002% Brij-35 (Sigma) and also in presence of 10 mM MgCl2 as cofactor, except for INSR and IRAK4 wherein 10 mM MnCl2 is used instead of MgCl2. For the kinases CAMK26 and CAMK4, 1 mM CaCl2 and 6.7 μg/mL of calmodulin are also added. For KDR kinase, 0.05% of the CHAPSO detergent is added. For the c-Raf kinase, 10 mM MnCl2 is added. For PKCβ2 0.02 μg/mL of PS/PMA is added. For PKGα se 10 μM of cGMP (cyclic guanosine monophosphate) is added. The compound and the enzyme are left for 15 minutes preincubation and, then, the following are added to each well: 12 μL of peptide buffer/ATP containing 100 mM HEPES, pH 7.5, 1.5 μM peptide marker with fluorescein (specific for the corresponding kinase), ATP (at concentration KM), and 0.002% Brij-35 to start the reaction. Generally, the reactions are incubated for 1-1.5 h at ambient temperature to obtain an adequate conversion (15-40%) of the peptide to the phosphorylated product. The reactions were ended by the addition of 45 μL of buffer containing 0 mM EDTA. The microplates were read by the LabChip 3000 using a 12-channel LabChip. The P/(P+S) values were obtained as described above and the CI50 curves were generated using XIfit. […]

The next assay addresses T2, GSK3b (Homo sapiens, UniProt P49841).
T2 construct: purchased Carna Biosciences
As to the kind of experiment: LabChip (Caliper) kinase assay, GSK3b. Here is the method:
as §1, §2, §3, §4

Another assay concerns the target T3, MST2 (Homo sapiens, UniProt Q13188).
T3 construct: purchased Upstate
T3 sequence (Q13188 1-491): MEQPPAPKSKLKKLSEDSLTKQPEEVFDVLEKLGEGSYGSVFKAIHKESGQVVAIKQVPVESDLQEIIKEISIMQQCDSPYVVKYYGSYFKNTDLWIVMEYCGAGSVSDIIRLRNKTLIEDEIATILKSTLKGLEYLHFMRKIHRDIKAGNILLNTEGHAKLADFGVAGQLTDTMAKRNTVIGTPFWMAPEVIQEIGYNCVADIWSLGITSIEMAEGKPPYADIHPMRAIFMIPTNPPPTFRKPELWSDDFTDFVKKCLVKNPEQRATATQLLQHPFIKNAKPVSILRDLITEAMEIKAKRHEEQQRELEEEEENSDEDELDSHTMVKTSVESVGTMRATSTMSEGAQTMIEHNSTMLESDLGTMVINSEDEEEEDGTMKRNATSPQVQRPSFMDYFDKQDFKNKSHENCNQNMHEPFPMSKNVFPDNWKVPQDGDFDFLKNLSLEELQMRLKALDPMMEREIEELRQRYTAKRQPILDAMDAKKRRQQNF
Put plainly: LabChip (Caliper) kinase assay, MST2. The method, then:
as §1, §2, §3, §4

T2 sequence (P49841 whole entry): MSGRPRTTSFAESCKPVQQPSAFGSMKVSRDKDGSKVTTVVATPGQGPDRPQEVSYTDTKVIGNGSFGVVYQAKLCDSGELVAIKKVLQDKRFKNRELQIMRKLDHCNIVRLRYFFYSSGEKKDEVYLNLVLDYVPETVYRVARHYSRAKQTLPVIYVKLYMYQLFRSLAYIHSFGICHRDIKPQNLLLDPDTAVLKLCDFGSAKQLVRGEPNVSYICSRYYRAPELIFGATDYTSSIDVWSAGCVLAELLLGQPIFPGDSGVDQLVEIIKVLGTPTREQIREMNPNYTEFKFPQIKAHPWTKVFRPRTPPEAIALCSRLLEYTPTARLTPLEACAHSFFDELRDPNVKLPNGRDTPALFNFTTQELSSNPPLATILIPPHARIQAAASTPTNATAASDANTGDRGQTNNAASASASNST
T1 sequence (Q15418 whole entry): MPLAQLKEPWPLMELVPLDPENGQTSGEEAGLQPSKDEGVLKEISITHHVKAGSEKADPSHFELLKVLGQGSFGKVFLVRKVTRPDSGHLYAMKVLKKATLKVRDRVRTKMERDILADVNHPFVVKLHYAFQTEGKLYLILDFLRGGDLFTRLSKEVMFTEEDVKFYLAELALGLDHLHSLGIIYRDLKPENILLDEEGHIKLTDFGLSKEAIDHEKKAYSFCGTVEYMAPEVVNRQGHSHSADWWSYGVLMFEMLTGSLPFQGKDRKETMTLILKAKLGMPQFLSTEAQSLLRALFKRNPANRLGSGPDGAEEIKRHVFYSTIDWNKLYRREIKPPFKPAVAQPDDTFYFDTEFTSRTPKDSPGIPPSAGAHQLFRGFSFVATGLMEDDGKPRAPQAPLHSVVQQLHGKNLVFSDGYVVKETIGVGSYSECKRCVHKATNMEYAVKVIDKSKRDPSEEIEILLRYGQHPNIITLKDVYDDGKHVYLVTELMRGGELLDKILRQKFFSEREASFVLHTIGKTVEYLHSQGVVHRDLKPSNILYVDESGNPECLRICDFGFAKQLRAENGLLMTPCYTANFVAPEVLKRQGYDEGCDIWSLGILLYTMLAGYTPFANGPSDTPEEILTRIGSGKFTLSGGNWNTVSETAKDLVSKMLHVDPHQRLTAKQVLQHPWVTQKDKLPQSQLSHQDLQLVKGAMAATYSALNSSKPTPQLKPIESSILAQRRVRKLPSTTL

Regarding `C[C@H]1O[C@@H](n2c3ccccc3c3c4c(c5c6ccccc6[nH]c5c32)CNC4=O)C[C@@H](O)[C@@H]1O` [formula (XV), N^13-1′-β-D-olivosyl-k252c], the inhibition at 0.01 µM is -1% on RSK1, 0% on GSK3b and 12% at MST2. Moreover, the inhibition at 0.1 µM on RSK1 was determined as 31%; on GSK3b it was 0%; at MST2 it was 78%.
`C[C@@H]1O[C@@H](n2c3ccccc3c3c4c(c5c6ccccc6[nH]c5c32)CNC4=O)[C@H](O)[C@H](O)[C@H]1O` [formula (XII), N^13-1′-β-L-rhamnosyl-k252c]: the inhibition at 0.01 µM on RSK1 is -4%; on GSK3b, 3%; on MST2, 4%. The results for the inhibition at 0.1 µM at RSK1, on GSK3b and at MST2 were 7%, 8% and 19%, respectively.
`C[C@H]1O[C@@H](n2c3ccccc3c3c4c(c5c6ccccc6[nH]c5c32)C(=O)NC4=O)C[C@@H](O)[C@@H]1O` [formula (VI), N^13-1′-β-D-olivosylarcyriaflavin]: the inhibition at 0.01 µM at RSK1 was 31%; on GSK3b, 18%; at MST2, 13%. In addition, the values for the inhibition at 0.1 µM on RSK1, on GSK3b and at MST2 were 74%, 69% and 65%, respectively.
Consider `C[C@@H]1O[C@@H](n2c3ccccc3c3c4c(c5c6ccccc6[nH]c5c32)C(=O)NC4=O)C[C@H](O)[C@H]1O` [formula (IV), N^13-1′-β-L-olivosylarcyriaflavin], for which the figures for the inhibition at 0.01 µM at RSK1, on GSK3b and on MST2 were 14%, 21% and 2%, respectively. The inhibition at 0.1 µM is 77% at RSK1, 69% on GSK3b and 15% on MST2.
For the compound `C[C@@H]1O[C@@H](n2c3ccccc3c3c4c(c5c6ccccc6[nH]c5c32)CNC4=O)C[C@@H](O)[C@H]1O` [formula (XIV), N^13-1′-β-L-digitoxosyl-k252c], the inhibition at 0.01 µM is -1% on RSK1, 1% at GSK3b and 7% at MST2. For the same compound, the inhibition at 0.1 µM was 22% on RSK1, 7% on GSK3b and 34% on MST2.
`C[C@@H]1O[C@@H](n2c3ccccc3c3c4c(c5c6ccccc6[nH]c5c32)C(=O)NC4=O)C[C@@H](O)[C@H]1O` [formula (V), N^13-1′-β-L-digitoxosylarcyriaflavin]: the inhibition at 0.01 µM is 38% at RSK1, 42% on GSK3b and 16% at MST2. Moreover, the values for the inhibition at 0.1 µM at RSK1, on GSK3b and at MST2 were 77%, 81% and 54%, respectively.
In the case of `C[C@@H]1O[C@@H](n2c3ccccc3c3c4c(c5c6ccccc6[nH]c5c32)CNC4=O)C[C@H](O)[C@H]1O` [formula (XIII), N^13-1′-β-L-olivosyl-k252c], the figures for the inhibition at 0.01 µM at RSK1, at GSK3b and at MST2 were 7%, 2% and 4%, respectively. The inhibition at 0.1 µM is 56% on RSK1, 9% on GSK3b and 33% at MST2.
For `C[C@@H]1O[C@@H](n2c3ccccc3c3c4c(c5c6ccccc6[nH]c5c32)C(=O)NC4=O)[C@H](O)[C@H](O)[C@H]1O` [formula (III), N^13-1′-β-L-rhamnosylarcyriaflavin], the inhibition at 0.01 µM is 2% on RSK1, 21% at GSK3b and 2% at MST2. Further, the figures for the inhibition at 0.1 µM on RSK1, on GSK3b and at MST2 were 20%, 72% and 10%, respectively.
